Reference: ChEMBL document CHEMBL4196078, “Polypharmacology in HIV inhibition: can a drug with simultaneous action against two relevant targets be an alternative to combination therapy?” (Eur J Med Chem, 2018)
Values after ≈ are worked out from the molar mass of the structure shown.

Legend:
[1] = target: T1, Human immunodeficiency virus type 1 reverse transcriptase (Human immunodeficiency virus 1, UniProt Q72547); assay: Inhibition of HIV1 reverse transcriptase RNase H using RNA-DNA hybrid duplex after 30 mins by FRET-based microplate fluorescence assay
[2] = target: T1, Human immunodeficiency virus type 1 reverse transcriptase; assay: Inhibition of HIV1 reverse transcriptase polymerase p51/p66 after 10 to 20 mins in presence of [3H]-TTP by liquid scintillation counting method
[3] = test system: Human immunodeficiency virus 1; assay: Antiviral activity against HIV1; type: functional, organism-based
Hepatitis B virus = assay: Antiviral activity against HBV; type: functional, organism-based
Herpesviridae sp. [4] = assay: Antiviral activity against HSV; type: functional, organism-based
Herpesviridae sp. [5] = assay: Potency index, ratio of tenofovir EC50 to compound EC50 for antiviral activity against HSV; type: functional
[6] = test system: Human immunodeficiency virus 1; assay: Antiviral activity against HIV1 infected in human CEM cells assessed as reduction in giant cell formation by microscopic method; type: functional, organism-based; settings: Human immunodeficiency virus 1, CCRF-CEM
[7] = Half life of the compound in PBS by HPLC analysis; type: physicochemical
[8] = target: T1, Human immunodeficiency virus type 1 reverse transcriptase; assay: Inhibition of HIV1 3B reverse transcriptase using polyC/oligo(dG12) as template/primer in presence of [3H]dGTP and calf thymus DNA after 30 mins
[9] = target: Human immunodeficiency virus type 1 reverse transcriptase (Human immunodeficiency virus 1, UniProt Q72547, E138K); assay: Inhibition of TSAO resistant HIV1 3B reverse transcriptase E138K mutant using polyC/oligo(dG12) as template/primer in presence of [3H]dGTP and calf thymus DNA after 30 mins
[10] = Stability in culture medium containing 10% FBS at 100 uM after 72 hrs by HPLC analysis; type: ADME; settings: cattle, read-out: Stability
Gag-Pol polyprotein = Gag-Pol polyprotein (Human immunodeficiency virus type 1 group M subtype B (isolate HXB2)(HIV-1), UniProt P04585); assay: Inhibition of HIV1 reverse transcriptase polymerase; design: species or system Human immunodeficiency virus 1
[11] = target: T1, Human immunodeficiency virus type 1 reverse transcriptase; assay: Inhibition of HIV1 reverse transcriptase RNase H
[12] = test system: Human immunodeficiency virus 1; assay: Antiviral activity against HIV1 3B infected in human MT4 cells; type: functional, organism-based; settings: Human immunodeficiency virus 1, 3B
[13] = test system: Human immunodeficiency virus 2; assay: Antiviral activity against HIV2; type: functional, organism-based
[14] = test system: Moloney murine sarcoma virus; assay: Antiviral activity against MSV; type: functional, organism-based
Human alphaherpesvirus 3 = assay: Antiviral activity against VZV; type: functional, organism-based
[15] = test system: Human immunodeficiency virus 1; assay: Antiviral activity against HIV1 3B infected in human CEM/0 after 4 days by microscopic method; type: functional, organism-based; settings: Human immunodeficiency virus 1, 3B, CCRF-CEM, 96 h
[16] = test system: Human immunodeficiency virus 1; assay: Antiviral activity against HIV1 Lai infected in human MOLT4 cells after 7 days by WST8 assay; type: functional, organism-based; settings: Human immunodeficiency virus 1, M:B_Lai, MOLT-4, 168 h
[17] = test system: Human immunodeficiency virus 1; assay: Antiviral activity against HIV1 3B infected in human MT4 cells by MTT assay; type: functional, organism-based; settings: Human immunodeficiency virus 1, 3B
[18] = test system: Human immunodeficiency virus 1; assay: Antiviral activity against HIV1 3B infected in human PBMC after 5 days by MTT assay; type: functional, organism-based; settings: Human immunodeficiency virus 1, 3B, 120 h
[19] = test system: Human immunodeficiency virus 1; assay: Antiviral activity against HIV1 Lai infected in human CEM-SS cells after 5 days by MTT assay; type: functional, organism-based; settings: Human immunodeficiency virus 1, M:B_Lai, 120 h
[20] = test system: Human immunodeficiency virus 2; assay: Antiviral activity against HIV2 D194 infected in human PBMC after 5 days by MTT assay; type: functional, organism-based, Human immunodeficiency virus type 2 (ISOLATE D194); settings: Human immunodeficiency virus 2, 120 h
[21] = test system: Human immunodeficiency virus 1; assay: Antiviral activity against PFA-resistant HIV1 harboring RT W88G mutant infected in human P4/R5 cells after 48 hrs by beta-galactosidase reporter gene assay; type: functional, organism-based; settings: Human immunodeficiency virus 1, P4/R5, 48 h

## COc1ccc2ccccc2c1/C=N/NC(=O)c1ccc(-c2ccccc2)cc1
[1]
  IC50: 5000 nM
[2]
  IC50: 500 nM

## Cc1cn([C@H]2C[C@H](N=[N+]=[N-])[C@@H](COC(=O)NCCCCNC(=O)OC[C@H]3O[C@@H](n4cc(C)c(=O)[nH]c4=O)C[C@@H]3N=[N+]=[N-])O2)c(=O)[nH]c1=O
[3]
  EC50: 26000 nM

## CC(C)(C)NC(=O)[C@H]1N(C(=O)[C@@H](O)[C@H](Cc2ccccc2)NC(=O)CC(C)(C)C(=O)O)CSC1(C)C
[3]
  EC50: 52 nM

## Cc1cn([C@H]2C=C[C@@H](COC(=O)NCCCCNC(=O)OC[C@H]3O[C@@H](n4cc(C)c(=O)[nH]c4=O)C[C@@H]3N=[N+]=[N-])O2)c(=O)[nH]c1=O
[3]
  EC50: 96300 nM

## Cc1cn([C@H]2C=C[C@@H](COC(=O)OC[C@@H]3C=C[C@H](n4cc(C)c(=O)[nH]c4=O)O3)O2)c(=O)[nH]c1=O
[3]
  EC50: 240 nM

## Nc1ncnc2c1ncn2CCOCP(=O)(O)O [ADEFOVIR]
[3]
  EC50: 2000 nM
Hepatitis B virus
  IC50: 700 nM

## Nc1cc(OCCOCP(=O)(O)O)nc(N)n1
[3]
  EC50: 0.8 µg/mL
Hepatitis B virus
  EC50: 300 nM
Herpesviridae sp. [4]
  EC50: 6.3 µg/mL (≈ 23.8 µM)
Herpesviridae sp. [5]
  Ratio EC50: 20

## COC(=O)P(=O)(OC)OCCCn1c(=O)c(C)cn([C@@H]2O[C@H](CO[Si](C)(C)C(C)(C)C)[C@@]3(OS(=O)(=O)C=C3N)[C@H]2O[Si](C)(C)C(C)(C)C)c1=O (stereo partly specified)
[6]
  EC50: 80 to 4500 nM
[7]
  half-life: 30 min

## Cc1cn([C@@H]2O[C@H](CO[Si](C)(C)C(C)(C)C)[C@@]3(OS(=O)(=O)C=C3N)[C@H]2O[Si](C)(C)C(C)(C)C)c(=O)n(CCCO)c1=O
[6]
  EC50: 100 nM

## COC(=O)P(=O)([O-])OCCCn1c(=O)c(C)cn([C@@H]2O[C@H](CO[Si](C)(C)C(C)(C)C)[C@@]3(OS(=O)(=O)C=C3N)[C@H]2O[Si](C)(C)C(C)(C)C)c1=O.[Na+]
[8]
  IC50: 3700 to 11000 nM
[9]
  IC50: 293000 to 430000 nM
[6]
  EC50: 80 to 4500 nM
[7]
  half-life: 30 min

## NC(=O)c1ncn([C@@H]2O[C@H](COP(=O)(O)OC[C@@H]3CC[C@H](n4cnc5c(=O)[nH]cnc54)O3)[C@@H](O)[C@H]2O)n1
[10]
  remaining at 72 h, 100 µM: 44%

## O=C1c2ccccc2C(=O)c2c1ccc(O)c2O [ATHRAQUINONES A]
Gag-Pol polyprotein
  IC50: 79000 nM
[11]
  IC50: > 100000 nM

## O=c1[nH]cnc2c1ncn2[C@H]1CC[C@@H](CO)O1 [DIDANOSINE]
[12]
  EC50: 13300 nM

## C[C@H](Cn1cnc2c(N)ncnc21)OCP(=O)(O)O [TENOFOVIR ANHYDROUS]
Herpesviridae sp. [4]
  EC50: 105 µg/mL (≈ 366 µM)

## Nc1nc(N)nc(OCCOCP(=O)(O)O)n1
[3]
  EC50: 2400 nM
Hepatitis B virus
  EC50: 3100 nM
[13]
  EC50: 3700 nM
[14]
  EC50: 350 nM
Human alphaherpesvirus 3
  EC50: 3100 nM

## Cc1cn([C@H]2C=C[C@@H](COC(=O)OCc3ccc(NC(=O)/C(O)=C/C(=O)c4cc(OCc5ccccc5)cc(OCc5ccccc5)c4)cc3)O2)c(=O)[nH]c1=O (stereo in doubt)
[3]
  EC50: 430 nM

## Cc1cn([C@@H]2O[C@H](CO[Si](C)(C)C(C)(C)C)[C@@]3(OS(=O)(=O)C=C3N)[C@H]2O[Si](C)(C)C(C)(C)C)c(=O)n(CCCOP(=O)(O)C(=O)OCc2ccccc2)c1=O
[8]
  IC50: 3700 to 11000 nM
[9]
  IC50: 293000 to 430000 nM
[6]
  EC50: 80 to 4500 nM
[7]
  half-life: 30 min

## Cc1cn([C@@H]2O[C@H](CO[Si](C)(C)C(C)(C)C)[C@@]3(OS(=O)(=O)C=C3N)[C@H]2O[Si](C)(C)C(C)(C)C)c(=O)n(CCCn2c(=O)c(C)cn([C@H]3C[C@H](N=[N+]=[N-])[C@@H](CO)O3)c2=O)c1=O
[15]
  EC50: 90 nM

## COc1ccc2ccccc2c1/C=N/NC(=O)c1ccc(O)c(O)c1
[1]
  IC50: 500 nM
[2]
  IC50: > 25000 nM

## Cc1cn([C@H]2C[C@H](N=[N+]=[N-])[C@@H](COP(=O)(OC[C@@H]3CC[C@H](n4cnc5c(=O)[nH]cnc54)O3)OC[C@@H]3CC[C@H](n4cnc5c(=O)[nH]cnc54)O3)O2)c(=O)[nH]c1=O
[12]
  EC50: 165 nM

## Cc1cccc(C)c1OCC(=O)N[C@@H](Cc1ccccc1)[C@H](O)C(=O)N1CSC(C)(C)[C@H]1C(=O)NC(C)(C)C
[16]
  EC50: 92 nM

## CCc1c(Sc2cc(C)cc(C)c2)n(CCCCC(=O)NCCCCCCCCCCCCNc2ccn([C@H]3CC[C@@H](CO)O3)c(=O)n2)c(=O)[nH]c1=O
[17]
  EC50: 450 nM
[18]
  EC50: 450 nM
[19]
  EC50: 450 nM
[20]
  EC50: 450 nM

## CCOC(=O)P(=O)(O)OCCCn1c(=O)c(C)cn([C@@H]2O[C@H](CO[Si](C)(C)C(C)(C)C)[C@@]3(OS(=O)(=O)C=C3N)[C@H]2O[Si](C)(C)C(C)(C)C)c1=O
[8]
  IC50: 3700 to 11000 nM
[9]
  IC50: 293000 to 430000 nM
[6]
  EC50: 80 to 4500 nM
[7]
  half-life: 30 min

## Cc1cn([C@@H]2O[C@H](CO[Si](C)(C)C(C)(C)C)[C@@]3(OS(=O)(=O)C=C3N)[C@H]2O[Si](C)(C)C(C)(C)C)c(=O)n(CCCOP(=O)(O)C(=O)O)c1=O
[8]
  IC50: 3700 to 11000 nM
[9]
  IC50: 293000 to 430000 nM
[6]
  EC50: 80 to 4500 nM
[21]
  EC50: 160 nM
[7]
  half-life: 30 min

## Cc1cccc(C)c1OCC(=O)N[C@@H](Cc1ccccc1)[C@H](OC(=O)CCCC(=O)NCC(=O)OC[C@H]1O[C@@H](n2cc(C)c(=O)[nH]c2=O)C[C@@H]1N=[N+]=[N-])C(=O)N1CSC(C)(C)[C@H]1C(=O)NC(C)(C)C
[16]
  EC50: 0.1 nM

## O=C(Oc1ccc2c(c1OC(=O)c1ccccc1)C(=O)c1ccccc1C2=O)c1ccccc1
Gag-Pol polyprotein
  IC50: 12000 nM
[11]
  IC50: 13000 nM

## Cc1cn([C@H]2C[C@H](N=[N+]=[N-])[C@@H](COP(=O)(O)OC[C@H]3O[C@@H](n4cnc(C(N)=O)n4)[C@H](O)[C@@H]3O)O2)c(=O)[nH]c1=O
[10]
  remaining at 72 h, 100 µM: 36%

## COc1ccc2ccccc2c1/C=N/NC(=O)c1ccc(Oc2ccccc2)cc1
[1]
  IC50: 7000 nM
[2]
  IC50: 400 nM

## Cc1cn([C@H]2C[C@H](N=[N+]=[N-])[C@@H](CO)O2)c(=O)[nH]c1=O [ZIDOVUDINE]
[12]
  EC50: 2 nM
[3]
  EC50: 126 nM
[16]
  EC50: 6.2 nM

## Cc1cn([C@H]2C=C[C@@H](COC(=O)OC[C@H]3O[C@@H](n4cc(C)c(=O)[nH]c4=O)C[C@@H]3N=[N+]=[N-])O2)c(=O)[nH]c1=O
[3]
  EC50: 6 nM

## CCc1c(Sc2cc(C)cc(C)c2)n(COCCO)c(=O)[nH]c1=O
[12]
  EC50: 7 nM

## Cc1cn([C@H]2C[C@H](N=[N+]=[N-])[C@@H](COP(=O)(O)OC[C@@H]3CC[C@H](n4cnc5c(=O)[nH]cnc54)O3)O2)c(=O)[nH]c1=O
[12]
  EC50: 2 nM
[10]
  remaining at 72 h, 100 µM: 57%

## Cc1cn([C@H]2C[C@H](N=[N+]=[N-])[C@@H](COC(=O)OC[C@H]3O[C@@H](n4cc(C)c(=O)[nH]c4=O)C[C@@H]3N=[N+]=[N-])O2)c(=O)[nH]c1=O
[3]
  EC50: 2 nM
